Experiment [1] relates to SOCE (store operated calcium entry) in CHO cells. Briefly: Assay of SOCE (store operated calcium entry)-inhibiting action. The conditions noted are these: Cricetulus griseus, CHO, CHO cells, thapsigargin, read-out: SOCE level (percentage of inhibition); for inhibition at 10 µM: test compound 10 μmol; for inhibition at 30 µM: test compound 30 μmol; for inhibition at 100 µM: test compound 100 μmol. The class given is cell-based, Chinese hamster. In short, it runs like this:
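CHO cells in calcium-free BSS received compound, then 1 μM thapsigargin 2 min later to deplete stores; after 9 min, 2 mM calcium chloride (final) added. Percent inhibition of the rise in intracellular calcium determined at various compound concentrations.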

Experiment [2] has as its system IICR (IP3 induced calcium release) in CHO cells. The experiment can be described thus: Assay of IICR (IP3 induced calcium release)-inhibiting action. The class given is cell-based, Chinese hamster. The settings on record: Cricetulus griseus, CHO, CHO cells, 10 μM ATP, read-out: IICR level (percentage of inhibition); for inhibition at 10 µM: test compound 10 μmol; for inhibition at 30 µM: test compound 30 μmol; for inhibition at 100 µM: test compound 100 μmol. The method in brief: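 CHO cell medium replaced with calcium-containing BSS; compound added 1 min later, then 10 μM ATP after a further 2 min. Percent inhibition of the ATP-evoked rise in intracellular calcium determined at each compound concentration.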

Molecules are shown by their SMILES.

In general, inhibition refers to the share of the control response that was lost under treatment. With `CCN(CCC(=O)c1ccncc1)Cc1ccccc1` [Example 209, 2-(N-ethylbenzyl)aminoethyl-4-pyridylketone], in experiment [1], the inhibition at 10 µM was determined as 0%, the inhibition at 30 µM was 20% and the inhibition at 100 µM is 60%. Moreover, in experiment [2], the inhibition at 10 µM turned out to be 20%, the inhibition at 30 µM turned out to be 20% and the inhibition at 100 µM turned out to be 50%.

Regarding `CC(C)(C)N(CCC(=O)c1ccncc1)Cc1ccccc1` [Example 210, 2-(N-t-butylbenzyl)aminoethyl-4-pyridylketone], in experiment [1], the inhibition at 10 µM was found to be 0%, the inhibition at 30 µM was determined as 10% and the inhibition at 100 µM was found to be 30%. In experiment [2], the inhibition at 10 µM is 0%, the inhibition at 30 µM amounted to 20% and the inhibition at 100 µM came to 0%.

Consider `O=C(CCN1CCN(c2ccco2)CC1)c1ccc(F)cc1` [Example 211, 2-(N-2-furylpiperadino)ethyl-4-fluorophenylketone], for which, in experiment [1], the inhibition at 10 µM stood at 0%, the inhibition at 30 µM was found to be 10% and the inhibition at 100 µM stood at 30%. Besides, in experiment [2], the inhibition at 10 µM came out at 30%, the inhibition at 30 µM is 20% and the inhibition at 100 µM came out at 20%.

For `CC(C)N(CCC(=O)c1ccc(F)cc1)Cc1ccccc1` [Example 212, 2-(N-isopropylbenzyl)aminoethyl-4-fluorophenylketone], in experiment [1], the inhibition at 10 µM is 0%, the inhibition at 30 µM came to 30% and the inhibition at 100 µM turned out to be 50%. In experiment [2], the inhibition at 10 µM was determined as 20%, the inhibition at 30 µM stood at 80% and the inhibition at 100 µM is 30%.

With `CC(C)(C)N(CCC(=O)c1cnccn1)Cc1ccccc1` [Example 213, 2-(N-2-benzyl-t-butyl)aminoethyl-2-pyrazylketone], in experiment [1], the inhibition at 10 µM was 0%, the inhibition at 30 µM is 0% and the inhibition at 100 µM was 10%. Further, in experiment [2], the inhibition at 10 µM came to 20%, the inhibition at 30 µM was 80% and the inhibition at 100 µM was found to be 90%.

Consider `CC(C)(C)N(CCO)CCC(=O)c1cnccn1` [Example 214, 2-(N-2-hydroxyethyl-t-butyl)aminoethyl-2-pyrazylketone], for which, in experiment [1], the inhibition at 10 µM is 10%, the inhibition at 30 µM came out at 0% and the inhibition at 100 µM amounted to 0%. In experiment [2], the inhibition at 10 µM worked out at 0%, the inhibition at 30 µM is 0% and the inhibition at 100 µM came out at 0%.

For `CN(CCC(=O)c1cnccn1)Cc1ccccc1` [Example 215, 2-(N-benzylmethyl)aminoethyl-2-pyrazylketone], in experiment [1], the inhibition at 10 µM stood at 0%, the inhibition at 30 µM was 0% and the inhibition at 100 µM worked out at 0%. Moreover, in experiment [2], the inhibition at 10 µM amounted to 0%, the inhibition at 30 µM amounted to 0% and the inhibition at 100 µM was found to be 50%.

Regarding `O=C(CCNCCCCNCCCNCCC(=O)c1ccncc1)c1ccncc1` [Example 216, N,N-bis(4-pyrizoylethyl)spermidine], in experiment [1], the inhibition at 10 µM was determined as 0%, the inhibition at 30 µM came out at 10% and the inhibition at 100 µM worked out at 10%. In experiment [2], the inhibition at 10 µM worked out at 0%, the inhibition at 30 µM was found to be 0% and the inhibition at 100 µM worked out at 30%.

`O=C(CCN1CCCCC1CO)c1ccncc1` (stereo not drawn) [Example 217]: in experiment [1], the inhibition at 10 µM turned out to be 10%, the inhibition at 30 µM was found to be 0% and the inhibition at 100 µM is 20%. Also, in experiment [2], the inhibition at 10 µM turned out to be 0%, the inhibition at 30 µM is 20% and the inhibition at 100 µM is 50%.

In the case of `CCN(CCC(=O)c1ccc2c(c1)Cc1ccccc1-2)Cc1ccccc1` [Example 218, 2-(N-benzylethyl)aminoethyl-2-florenylketone], in experiment [1], the inhibition at 10 µM came to 20%, the inhibition at 30 µM is 60% and the inhibition at 100 µM worked out at 70%. In addition, in experiment [2], the inhibition at 10 µM came out at 10%, the inhibition at 30 µM amounted to 40% and the inhibition at 100 µM stood at 70%.

Take `Cc1nc(C)c(C(=O)CCN(Cc2ccccc2)C(C)C)s1` [Example 219, 2-(N-benzylisopropyl)aminoethyl-5-(2,4-dimethylthiazolyl)ketone]: in experiment [1], the inhibition at 10 µM came to 0%, the inhibition at 30 µM was 0% and the inhibition at 100 µM was 0%. In experiment [2], the inhibition at 10 µM was found to be 20%, the inhibition at 30 µM stood at 90% and the inhibition at 100 µM came out at 100%.

In the case of `Cc1nc(C)c(C(=O)CCNCCNCCO)s1` [Example 220, 2-(N-2-hydroxyaminoethyl)aminoethyl-5-(2,4-dimethylthiazolyl)ketone], in experiment [1], the inhibition at 10 µM is 0%, the inhibition at 30 µM stood at 0% and the inhibition at 100 µM turned out to be 0%. Further, in experiment [2], the inhibition at 10 µM was 0%, the inhibition at 30 µM is 40% and the inhibition at 100 µM was 40%.

For `Cc1cc(C(=O)CCN(Cc2ccccc2)C(C)C)c(C)o1` [Example 221, 2-(N-benzylisopropyl)aminoethyl-3-(2,5-dimethylfuryl)ketone], in experiment [1], the inhibition at 10 µM was 0%, the inhibition at 30 µM was found to be 0% and the inhibition at 100 µM worked out at 0%. Also, in experiment [2], the inhibition at 10 µM was 0%, the inhibition at 30 µM is 0% and the inhibition at 100 µM came out at 0%.

`CC(C)N(CCC(=O)c1ccsc1)Cc1ccccc1` [Example 222, 2-(N-isopropylbenzyl)aminoethyl-3-thiophenylketone]: in experiment [1], the inhibition at 10 µM was 0%, the inhibition at 30 µM was found to be 0% and the inhibition at 100 µM amounted to 10%. In experiment [2], the inhibition at 10 µM stood at 0%, the inhibition at 30 µM came out at 30% and the inhibition at 100 µM worked out at 80%.

For `O=C(CCNCCc1ccccc1)c1ccsc1` [Example 223, 2-(N-phenethyl)aminoethyl-3-thiophenylketone], in experiment [1], the inhibition at 10 µM was found to be 0%, the inhibition at 30 µM was determined as 10% and the inhibition at 100 µM came to 20%. In addition, in experiment [2], the inhibition at 10 µM came to 0%, the inhibition at 30 µM worked out at 0% and the inhibition at 100 µM is 0%.

Consider `CC(C)N(CCC(=O)n1ccnc1)Cc1ccccc1` [Example 224, 2-(N-isopropylbenzyl)aminoethyl-1-imidazolylketone], for which, in experiment [1], the inhibition at 10 µM came to 0%, the inhibition at 30 µM was 0% and the inhibition at 100 µM came out at 20%. Besides, in experiment [2], the inhibition at 10 µM was 20%, the inhibition at 30 µM came to 20% and the inhibition at 100 µM worked out at 0%.

Take `Cc1cc(C(=O)CCN(Cc2ccccc2)C(C)C)oc1C` [Example 225, 2-(N-isopropylbenzyl)aminoethyl-4,5-dimethyl-2-furylketone]: in experiment [1], the inhibition at 10 µM stood at 10%, the inhibition at 30 µM was 30% and the inhibition at 100 µM stood at 70%. Also, in experiment [2], the inhibition at 10 µM turned out to be 20%, the inhibition at 30 µM worked out at 30% and the inhibition at 100 µM was found to be 90%.

For `CCN(CCO)CCC(=O)c1cc(C)c(C)o1` [Example 226, 2-(N-2-hydroxyethylethyl)aminoethyl-4,5-dimethyl-2-furylketone], in experiment [1], the inhibition at 10 µM amounted to 0%, the inhibition at 30 µM was 0% and the inhibition at 100 µM worked out at 0%. Besides, in experiment [2], the inhibition at 10 µM was determined as 0%, the inhibition at 30 µM was 0% and the inhibition at 100 µM was found to be 50%.

`Cc1cc(C(=O)CCN(CCO)Cc2ccccc2)oc1C` [Example 227, 2-(N-2-hydroxyethylbenzyl)aminoethyl-4,5-dimethyl-2-furylketone]: in experiment [1], the inhibition at 10 µM worked out at 0%, the inhibition at 30 µM was 0% and the inhibition at 100 µM is 0%. Moreover, in experiment [2], the inhibition at 10 µM came to 20%, the inhibition at 30 µM worked out at 0% and the inhibition at 100 µM turned out to be 20%.

`CCN(CCO)CCC(=O)c1cc(C)sc1C` [Example 228, 2-(N-2-hydroxyethylethyl)aminoethyl-2,5-dimethyl-3-thiophenylketone]: in experiment [1], the inhibition at 10 µM stood at 0%, the inhibition at 30 µM came to 0% and the inhibition at 100 µM came out at 20%. For the same compound, in experiment [2], the inhibition at 10 µM is 20%, the inhibition at 30 µM came out at 0% and the inhibition at 100 µM stood at 20%.

Turning to `Cc1cc(C(=O)CCN(CCO)CCO)c(C)s1` [Example 229, 2-(N,N-bis-2-hydroxyethyl)aminoethyl-2,5-dimethyl-3-thiophenylketone], in experiment [1], the inhibition at 10 µM worked out at 0%, the inhibition at 30 µM was found to be 0% and the inhibition at 100 µM turned out to be 0%. Besides, in experiment [2], the inhibition at 10 µM worked out at 0%, the inhibition at 30 µM was 0% and the inhibition at 100 µM is 0%.

For the compound `Cc1cc(C(=O)CCN(CCO)C(C)C)c(C)s1` [Example 230, 2-(N-2-hydroxyethylisopropyl)aminoethyl-2,5-dimethyl-3-thiophenylketone], in experiment [1], the inhibition at 10 µM turned out to be 0%, the inhibition at 30 µM came to 0% and the inhibition at 100 µM was 0%. In experiment [2], the inhibition at 10 µM worked out at 0%, the inhibition at 30 µM was determined as 0% and the inhibition at 100 µM was 20%.

The record behind these values is US8937091B2 (Japan Science and Technology Agency, priority 2009, dated 2015).
